Assay results as given in patent publication US7919577B2, “Adrenocorticotropic hormone analogs and related methods” (Colorado Seminary, priority 2004, dated 2011).

Key:
[1] = system: dexamethasone-suppressed male FVB/N mice; assay: in vivo Serum Corticosteroid Induction Assay (Example 1); design: species or system mouse; details: for in vivo activity, % corticosterone induction relative to mACTH(1-24): FIG. 5, method of Example 1; for Percent reduction in serum corticosteroid: relative to unmodified mACTH(1-24), 1 μg subcutaneously to dexamethasone-suppressed mice, blood one hour later
Procedure: An in vivo Serum Corticosteroid Induction Assay measures the level of corticosteroid or corticosterone in the blood stream of a subject. More specifically, the in vivo Serum Corticosteroid Induction Assay can include the following steps: first, an agent to suppress endogenous ACTH production was administered to a mouse subject, such as an intraperitoneal injection of dexamethasone; second, after waiting a suitable period of time for suppression of endogenous ACTH production (e.g., 1.5-2.0 hours), a test compound can be administered to the mouse by a suitable method, such as intraperitoneal or subcutaneous injection; and third, after waiting a suitable period of time (e.g., 1 hour) for action of the injected test compound, a blood sample can be taken from the subject and the level of serum corticosterone can be determined by a suitable method, such as a competitive radioimmunoassay using ^125I RIA kit (ICN, Costa Mesa, Calif.). Example 1 describes a murine in vivo Serum Corticosteroid Induction Assay in detail.
The corticosteroid or corticosterone secretion induced in vivo by an ACTH analog compound was compared to the level of corticosteroid secretion produced by an unmodified ACTH compound by measuring blood serum corticosteroid after administering either the ACTH or ACTH analog as test compounds. […] ACTH analog compositions with decreased function were identified by measuring corticosterone levels using standard radioimmunoassay (RIA) analysis on blood samples collected one hour after administering the mACTH(1-24) or ACTH analog compound to dexamethasone-suppressed mice. In FIG. 1, the potency of various ACTH analog peptides is expressed as percent induction of corticosterone, with mouse ACTH being 100%. […] The percent of corticosterone induction 12 of ACTH analog Compounds in Samples 2-10 are shown as a percentage of the concentration of serum corticosterone 20 measured for unmodified mACTH(1-24) in the in vivo Serum Corticosteroid Adrenal Induction Assay. The structural modifications and measured percentage reduction in serum measured for Samples 2-10 in FIG. 1 are shown in Table 3 below.
The in vivo Serum Corticosteroid Induction Assay was performed according the following method. First, two to three month-old male FVB/N mice from our colony, five per group, were injected intraperitoneally with dexamethasone (0.4 mg/0.1 ml PBS per mouse; Sigma, St. Louis, Mo.) to suppress their endogenous ACTH production. See Hajos, G T et al., “Studies of the potency of polypeptides with ACTH action by a new method based on continuous measurement of plasma corticosterone,” Steroids Lipids Res 3:225-228 (1972), Costa, J L, et al., “Mutational analysis of evolutionarily conserved ACTH residues,” Gen Comp Endocrinol, 136:12-16 (2004), and Karpac, J, et al., “Development, Maintenance, and Function of the Adrenal Gland in Early Postnatal Pro-opiomelanocortin Null Mutant Mice,” Endocrinology (2005), published online ahead of print Feb. 24, 2005, all of which are incorporated herein by reference.
Second, ninety to one hundred twenty minutes later, the dexamethasone-suppressed mice were injected subcutaneously between the shoulder blades with either unmodified mACTH(1-24) or one of several ACTH analog peptide compounds (1 μg/0.1 mL PBS/0.5% BSA), or with vehicle alone (control) (0.1 mL PBS/0.5% BSA). The following ACTH analog peptide compounds were administered to separate mice: 1: murine ACTH1-24; 2: V26F,E30K; 3: P19W,K21E,Y23R; 4: E30K,P36R; 5: ALA19-24; 6: V26F,P36R; 7: P19W, K21E; 8: P19W,K21A,delY23; 9: P19W,K21A; 10: KRRP16-19RAAW (AT814) (SEQ ID NO:20).
Third, one hour later, blood was collected within less than 1 minute from a small incision in the tail, and serum was flash-frozen and stored at −80° C. until assayed. Serum corticosterone was determined by competitive radioimmunoassay (^125I RIA kit; ICN, Costa Mesa, Calif.) according to the manufacturer's recommendations. One microliter of serum was used per assay sample. […]

[2] = system: explanted mouse adrenal membrane (adrenal halves); assay: in vitro Serum-free Adrenal Inhibition Assay (Example 4); type: cell-based; details: for in vitro activity, % corticosterone induction relative to mACTH(1-24): FIG. 5, method of Example 4; for in vitro activity compared with in vivo activity of the same analog: FIG. 5, in vitro Example 4, in vivo Example 1
Procedure: A series of separate in vitro Serum-Free Adrenal Corticosteroid Inhibition Assay were performed to identify ACTH analogs that inhibit ACTH-induced adrenal hormone production in vitro. The concentration of corticosterone was measured according to the procedure of Example 4 in a serum-free culture medium containing explanted adrenal membrane and unmodified ACTH, AT814 ACTH analog (SEQ ID NO:20), or a combination of ACTH and AT814 at 100 ng/mL each. […] Corticosterone levels were taken at 2.0 hours after the adrenal membrane was placed in the serum free M199 medium, and each corticosterone level in Table 5 is an average of five samples.
The in vitro Serum-free Adrenal Inhibition Assay was performed according the following method. First, adrenals were removed from mice, dissected free of fat, and cut in half. See Costa, J L, et al., “Mutational analysis of evolutionarily conserved ACTH residues,” Gen Comp Endocrinol. 136:12-16 (2004); and Weber, M M, et al., “Postnatal overexpression of insulin-like growth factor II in transgenic mice is associated with adrenocortical hyperplasia and enhanced steroidogenesis,” Endocrinology 140:1537-1543 (1999), incorporated herein by reference.
Second, each adrenal half was placed into an individual well of a 4-well dish, one dish per mouse. Adrenal halves were incubated at 5% CO2, 37° C., in 0.5 ml serum-free medium (M199; Invitrogen) for 30 minutes to equilibrate.
Third, medium was removed and replaced by 0.5 ml M199 containing ACTH, AT814, or both, at 100 ng/ml each; controls had no peptides added.
Fourth, after 2 hours of incubation, the medium was removed, pooled for all four halves from each mouse, and assayed by corticosterone using standard RIA methods. corticosterone was determined by competitive radioimmunoassay (^125I RIA kit; ICN, Costa Mesa, Calif.) according to the manufacturer's recommendations. One microliter of serum was used per assay sample. Samples were run in duplicates.

| serum half life ([1]; inferred from in vivo versus in vitro activity, FIG. 5) | Substance | in vivo activity, % corticosterone induction relative to mACTH(1-24) [1] | in vitro activity, % corticosterone induction relative to mACTH(1-24) [2] | in vitro activity compared with in vivo activity of the same analog [2] | in vivo activity, percent greater than the in vitro activity of unmodified mACTH ([1]; FIG. 5) | Percent reduction in serum corticosteroid [1] [%] |
| --- | --- | --- | --- | --- | --- | --- |
|  | (K15Q, R17Q)mACTH(1-24) [ACTH analog 440] | reduced | reduced | greater than its in vivo activity |  |  |
|  | (K16A, R18A)mACTH(1-24) [ACTH analog 430] | reduced | reduced | greater than its in vivo activity |  |  |
|  | (K15A, R17A)mACTH(1-24) [ACTH analog 410] | reduced | reduced | greater than its in vivo activity |  |  |
|  | (P19W, K21A)mACTH (SYSMEHFRWGKPVGKKRRWVAVYPNVAENESAEAFPLEF; Corticotropin residues 1-24; UniProt P01193 124-162, looked up, variant P19W K21A) [Sample 9] | reduced | reduced | greater than its in vivo activity |  |  |
|  | (K16A, R17A)mACTH(1-24) [ACTH analog 420] | reduced | reduced | greater than its in vivo activity |  |  |
| increased serum half life | (PVKVYP19-24AAAAA)mACTH [Sample 5] | greater relative to both mACTH and to other ACTH analogs |  |  | about 50% | 51 |
|  | (P19W, K21A, delY23)mACTH (SYSMEHFRWGKPVGKKRRWVAVPNVAENESAEAFPLEF; Corticotropin; UniProt P01193 124-162, looked up, variant P19W K21A Y23*) [Sample 8] |  |  |  |  | 76.0 |
